Measurements taken from patent publication US20140100138A1, “MECHANICAL STRESS RESPONSE ANALYSIS OF CELLS AND TISSUES” (The Regents of The University of California, priority 2012, published 2014).

How the values were obtained:
HUVECs [1] = assay: 96-well plate screen of microtsunami-generated Ca2+ signaling, percentage of cells signaling 100-150 μm from μCB center; type: cell-based, human; conditions: 96-well screen; for effect on microtsunami-induced Ca2+ signaling in Ca2+ containing media: HHBSS+ with 2 g/L D-glucose, FIG. 9D columns 8-10; for effect on microtsunami-induced Ca2+ signaling in Ca2+ free media: HHBSS- with 3 mM EGTA, 2-APB 10-100 μM, PP2 10 μM, Verapamil 50 nM, FIG. 9D columns 1-5
Description: 96 well plates (Invitro-Scientific) were coated with fibronectin and P4 HUVECs were plated in each well. […] DMSO was also added as a control corresponding to the highest amount added from solution of the drugs, 0.3%. The first seven columns contained the previously used HHBSS- with 3 mM EGTA and the last five columns contained HHBSS+ supplemented with 2 g/L D-glucose.
The experiments were performed in a 96-well plate where twelve conditions, each with eight replicates, were tested for their potential effect on μTsunami generated Ca^2+ signaling.

HUVECs [2] = assay: Cell lysate / ATP control experiments for Ca2+ signaling with and without microtsunami exposure; type: cell-based, human
Description: HUVECs grown in a tissue culture flask at full confluency were resuspended in standard HBSS- at a concentration of 1.5×10^7 cells/mL. Cell lysate solution was prepared by subjecting this solution to repeated freeze-thaw cycles at −80° C. and then sonicated on ice for 30 s.
Exposure to cell lysate alone was confirmed as not responsible for the observed Ca^2+ dynamics. Cells were dosed with a solution of cell lysate immediately following microtsunami exposure. In addition, cells were exposed to cell lysate alone. As positive controls, the Ca^2+ signaling response produced by ATP was measured with and without microtsunami exposure. As a negative control, Ca^2+ signaling without cell lysate, ATP, or microtsunami exposure was measured.
Probability of Ca2+ signaling produced by microtsunami exposure is plotted as a function of distance from the site of laser microbeam irradiation. Two control experiments were conducted to test whether the observed Ca^2+ was due to cellular exposure to cell lysate produced by the microtsunami. In the first, 150 μL of cell lysate was administered following a Ca^2+ signaling event generated by microtsunami exposure. […] Both experiments elicited an average signaling probability of <1%. […] The reduced ATP signaling probability following microtsunami exposure was due to cell lysis/necrosis produced by the microtsunami.

[3] = 2-APB 10 μM, 30 μM or 100 μM; cited from earlier work

Row | SMILES | effect on microtsunami-induced Ca2+ signaling in Ca2+ containing media (HUVECs [1]) | effect on microtsunami-induced Ca2+ signaling in Ca2+ free media (HUVECs [1]) | average Ca2+ signaling probability, substance given following microtsunami exposure (HUVECs [2]; administered after microtsunami, ATP 50 μM, cell lysate 150 μL) | average Ca2+ signaling probability, substance given without microtsunami exposure (HUVECs [2]; no microtsunami, ATP 50 μM) | Ca2+ signaling response (in words) (HUVECs [2]; with and without microtsunami exposure) | inhibition of Ca2+ release following stimulation using a bolus of ATP [3]
1 | CC(C)(C)n1nc(-c2ccc(Cl)cc2)c2c(N)ncnc21 [PP2] | significant microtsunami-induced mechanosignaling was observed | neither PP2 nor Verapamil (FIG. 9D, columns 4, 5) affected Ca^2+ signaling |  |  |  | 
2 | Nc1ncnc2c1ncn2[C@@H]1O[C@H](COP(=O)(O)OP(=O)(O)OP(=O)(O)O)[C@@H](O)[C@H]1O [ATP] |  |  | 60% | > 90% | strong Ca^2+ signaling response | 
3 | NCCOB(c1ccccc1)c1ccccc1 [2-APB, 2-Aminoethoxydiphenylborate] | suppression of signaling | dose-dependent inhibitory effect |  |  |  | dose-dependent inhibition of Ca^2+ release
